Test results published in ChEMBL document CHEMBL4402574, “Discovery of Acylsulfonohydrazide-Derived Inhibitors of the Lysine Acetyltransferase, KAT6A, as Potent Senescence-Inducing Anti-Cancer Agents” (J Med Chem, 2020).
In brackets after ≈: the same amount, converted by molar mass.

Legend:
[1] = Apparent permeability across apical to basolateral side in human Caco2 cells measured over 90 mins by LC-MS/MS analysis; format: ADME, cell-based; details: Caco-2
[2] = Tmax in Swiss mouse at 30 mg/kg, ip by UPLC analysis; format: ADME, organism-based; details: in vivo
[3] = Kinetic solubility of the compound in phosphate buffer at pH 6.5 by nephelometry; format: physicochemical; details: read-out: Kinetic_solubility
[4] = Cmax in Swiss mouse at 30 mg/kg, ip by UPLC analysis; format: ADME, organism-based; parameters: dose 30 mg/kg, route intraperitoneal; details: in vivo
[5] = Kinetic solubility of the compound in 0.01 M HCl at pH 2 by nephelometry; format: physicochemical; details: read-out: Kinetic_solubility
[6] = Drug excretion in Sprague-Dawley rat urine at 31 mg/kg, po using PEG400/Solutol HS-15/water formulation; format: ADME, organism-based; details: read-out: Drug excretion
[7] = Cysteine reactivity assessed as induction of confirmational change in 13C-methyl-labeled La antigen at 400 uM incubated for 1 hr at 37 degC followed by incubation at 30 degC for 15 mins in absence of DTT by ALARM NMR assay
[8] = Drug excretion in Sprague-Dawley rat urine at 33 mg/kg, po administered as suspension using HPMC formulation; format: ADME, organism-based; details: read-out: Drug excretion
[9] = Drug excretion in Sprague-Dawley rat urine at […], iv; format: ADME, organism-based; details: in vivo, BLD = below limit of detection
[10] = AUC (0 to infinity) in Sprague-Dawley rat at 33 mg/kg, po administered as suspension using HPMC formulation; format: ADME, organism-based; parameters: dose 33 mg/kg, route oral, time infinity; details: in vivo
[11] = AUC (0 to infinity) in Sprague-Dawley rat at 31 mg/kg, po using PEG400/Solutol HS-15/water formulation; format: ADME, organism-based; parameters: dose 31 mg/kg, time infinity, route oral; details: in vivo
[12] = Volume of distribution at steady state in Sprague-Dawley rat at […], iv; format: ADME, organism-based; details: in vivo, read-out: Vdss
[13] = Cmax in Sprague-Dawley rat at 31 mg/kg, po using PEG400/Solutol HS-15/water formulation; format: ADME, organism-based; parameters: dose 31 mg/kg, route oral; details: in vivo
[14] = in vivo; details: Sprague-Dawley, rat, po, 33 mg/kg
[15] = Tmax in Sprague-Dawley rat at 33 mg/kg, po administered as suspension using HPMC formulation; format: ADME, organism-based; details: in vivo
[16] = Cmax in Sprague-Dawley rat at 33 mg/kg, po administered as suspension using HPMC formulation; format: ADME, organism-based; parameters: dose 33 mg/kg, route oral; details: in vivo
[17] = AUC (0 to infinity) in Sprague-Dawley rat at […], iv; format: ADME, organism-based; parameters: dose 2.9 mg/kg, time infinity, route intravenous; details: in vivo
[18] = Cysteine reactivity assessed as induction of confirmational change in 13C-methyl-labeled La antigen at 400 uM incubated for 1 hr at 37 degC followed by incubation at 30 degC for 15 mins in presence of DTT by ALARM NMR assay
[19] = Tmax in Sprague-Dawley rat at 31 mg/kg, po using PEG400/Solutol HS-15/water formulation; format: ADME, organism-based; details: in vivo

| Structure (SMILES) | Papp A→B at […] [1] [×10⁻⁶ cm/s] | solubility kinetic [3] [µg/mL] | solubility kinetic [5] [µg/mL] | also measured |
| --- | --- | --- | --- | --- |
| Cc1cc(-c2ncccn2)cc(C(=O)NNS(=O)(=O)c2ccccc2)c1F | 77 | 50 to 100 (≈ 129 to 259 µM) | 50 to 100 (≈ 129 to 259 µM) | Tmax [2]: 0.28 h; Cmax [4]: 12.1 µM |
| Cc1cc(-n2cccn2)cc(C(=O)NNS(=O)(=O)c2ccccc2)c1F | 48 | 6.3 to 12.5 (≈ 16.8 to 33.4 µM) | 6.3 to 12.5 (≈ 16.8 to 33.4 µM) | – |
| CCCOc1cccc(C(=O)NNS(=O)(=O)c2ccccc2F)c1 | 77.3 | – | – | – |
| C=CCOc1ccc(F)c(C(=O)NNS(=O)(=O)c2ccccc2)c1 | – | 50 to 100 (≈ 143 to 285 µM) | 50 to 100 (≈ 143 to 285 µM) | – |
| O=C(NNS(=O)(=O)c1ccccc1F)c1cc(F)cc(-c2ccccn2)c1 [WM-1119] | 60 | 25 to 50 (≈ 64.2 to 128 µM) | 25 to 50 (≈ 64.2 to 128 µM) | dose excreted [6]: 0.078%; Drug metabolism [7]: Metabolite_Notdetected; dose excreted [8]: 0.009%; Drug excretion [9]: Bld; AUC(0-inf) [10]: 13 µM·h; AUC(0-inf) [11]: 38 µM·h; Vd [12]: 0.72 L/kg; Cmax [13]: 14 µM; bioavailability [14]: 18%; Tmax [15]: 1 h; Cmax [16]: 2.9 µM; AUC(0-inf) [17]: 6.2 µM·h; Drug metabolism [18]: Metabolite_Notdetected; Tmax [19]: 1 h |
| Cc1cc(C(=O)NNS(=O)(=O)c2ccccc2F)cc(-c2ccco2)c1 | – | 6.3 to 12.5 (≈ 16.8 to 33.4 µM) | 6.3 to 12.5 (≈ 16.8 to 33.4 µM) | – |
| Cc1cc(C(=O)NNS(=O)(=O)c2ccccc2F)cc(-c2ccccn2)c1 | – | 12.5 to 25 (≈ 32.4 to 64.9 µM) | > 100 | – |
| O=C(NNS(=O)(=O)c1ccccc1F)c1cc(F)cc(-n2cccn2)c1 | – | 25 to 50 (≈ 66.1 to 132 µM) | 25 to 50 (≈ 66.1 to 132 µM) | – |
| CCOc1cc(C)c(F)c(C(=O)NNS(=O)(=O)c2ccccc2)c1 | 65 | 12.5 to 25 (≈ 35.5 to 70.9 µM) | 12.5 to 25 (≈ 35.5 to 70.9 µM) | – |
| Cc1cc(-c2ccccn2)cc(C(=O)NNS(=O)(=O)c2ccccc2)c1F | 63 | 6.3 to 12.5 (≈ 16.3 to 32.4 µM) | 50 to 100 (≈ 130 to 259 µM) | – |
| CC(C)Oc1cccc(C(=O)NNS(=O)(=O)c2ccccc2F)c1 | – | 50 to 100 (≈ 142 to 284 µM) | 50 to 100 (≈ 142 to 284 µM) | – |
| O=C(NNS(=O)(=O)c1ccccc1F)c1cccc(I)c1 | 60.4 | – | – | – |
| CCOc1cc(C)cc(C(=O)NNS(=O)(=O)c2ccccc2F)c1 | 47 | 12.5 to 25 (≈ 35.5 to 70.9 µM) | 12.5 to 25 (≈ 35.5 to 70.9 µM) | Drug metabolism [7]: Metabolite_Notdetected; Drug metabolism [18]: Metabolite_Notdetected |
| O=C(NNS(=O)(=O)c1ccccc1F)c1cc(Cl)cc(-c2cccs2)c1 | 27.8 | – | – | – |
| Cc1cc(OC(C)C)cc(C(=O)NNS(=O)(=O)c2ccccc2F)c1 | – | 12.5 to 25 (≈ 34.1 to 68.2 µM) | 12.5 to 25 (≈ 34.1 to 68.2 µM) | – |
| O=C(NNS(=O)(=O)c1ccccc1F)c1cccc(-n2cccn2)c1 | – | 50 to 100 (≈ 139 to 277 µM) | 50 to 100 (≈ 139 to 277 µM) | – |
| Cc1cc(C(=O)NNS(=O)(=O)c2ccccc2F)cc(-n2cccn2)c1 | – | 12.5 to 25 (≈ 33.4 to 66.8 µM) | 12.5 to 25 (≈ 33.4 to 66.8 µM) | – |
| Cc1cc(-n2nccn2)cc(C(=O)NNS(=O)(=O)c2ccccc2)c1F | 53 | 25 to 50 (≈ 66.6 to 133 µM) | 25 to 50 (≈ 66.6 to 133 µM) | – |
| O=C(NNS(=O)(=O)c1ccccc1F)c1cccc(-c2ccccn2)c1 | – | 12.5 to 25 (≈ 33.7 to 67.3 µM) | 50 to 100 (≈ 135 to 269 µM) | – |
| O=C(NNS(=O)(=O)c1ccccc1F)c1cccc(-c2ccco2)c1 | 55.3 | – | – | – |
